In publication PMC8201479, “Trisubstituted Pyrrolinones as Small-Molecule Inhibitors Disrupting the Protein–RNA Interaction of LIN28 and Let-7” (ACS Medicinal Chemistry Letters, 2021):

Tests used:
[1] = molecular target: T1, LIN28–let-7 interaction (Homo sapiens, UniProt Q9H9Z2); experiment: Fluorescence polarization (FP) assay, LIN28A (residues 16–187) and FAM-labeled preE-let-7f-1; format: binding; conditions: for FP, Average (mP): raw data Table S3, four replicates
T1 construct: Purified LIN28A (residues 16–187) was incubated at a concentration of 200 nM; His-tag (cleaved yes); made in house; host or cells: Escherichia coli BL21(DE3)
T1 sequence (Q9H9Z2 16-187): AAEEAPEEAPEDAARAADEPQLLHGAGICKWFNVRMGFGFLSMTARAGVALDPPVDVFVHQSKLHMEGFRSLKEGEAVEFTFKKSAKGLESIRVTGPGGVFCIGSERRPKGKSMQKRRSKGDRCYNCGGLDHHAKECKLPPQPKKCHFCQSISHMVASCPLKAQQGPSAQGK

[2] = molecular target: T2, cold-shock domain of LIN28A (Homo sapiens, UniProt Q9H9Z2); experiment: Fluorescence quenching binding assay
T2 construct: cold shock domain construct LIN28 A (residues 16– 126)
T2 sequence (Q9H9Z2 16-126): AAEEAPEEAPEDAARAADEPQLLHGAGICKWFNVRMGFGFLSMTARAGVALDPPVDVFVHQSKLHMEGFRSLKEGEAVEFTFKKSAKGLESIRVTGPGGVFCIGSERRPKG
Description: Figure S5. Fluorescence quenching assay measuring binding of PH-31 to the cold-shock domain of
(1 picture or pasted object on this page, not shown here)

[3] = system: JAR cells; experiment: RT-qPCR of mature let-7 in JAR cells; format: cell-based, human; conditions: 24 h treatment
Description: differential scanning fluorimetry (nanoDSF) instrument at temperatures between 20 °C and 90 °C and a temperature slope of 1 °C per minute with an excitation power of 50–60 %. A total protein concentration of 30 µM and compound concentrations from 100 µM to 0.78 µM corresponding to […] to 0.039 % DMSO, respectively, were used. Compound and protein were incubated for 45 minutes at room temperature in buffer containing 30 mM NaH2PO4, 50 mM NaCl, 1 mM MgCl2, and 50 µM ZnCl2 at pH 8 and 10 µL sample was loaded to each nanoDSF standard capillary (NanoTemper). The ratio of intrinsic tryptophan fluorescence at 350 nm and 330 nm was measured and the first derivative was determined to detect the inflection points using the software of the device.
RT-qPCR. JAR cells (obtained from DSMZ, German Collection of Microorganisms and Cell Cultures, Braunschweig, Germany, DSMZ no. ACC462)1 were cultured in 24-well plates and treated with the compound (PH-31) for 24 h with a total DMSO concentration of 0.5 % in all wells. RNA was extracted using RNeasy Mini Kit (Qiagen) and 20 ng of total RNA was used for reverse transcription using the TaqMan microRNA Reverse Transcription Kit (Applied Biosystems) following the manufacturer's protocols. […]

[4] = molecular target: T3, LIN28–let-7 complex (Homo sapiens, UniProt Q9H9Z2); experiment: Electrophoretic mobility shift assay (EMSA); format: binding
T3 construct: Purified LIN28A (residues 16–187) was incubated at a concentration of 200 nM; His-tag (cleaved yes); made in house; host or cells: Escherichia coli BL21(DE3)
T3 sequence (Q9H9Z2 16-187): T1 sequence (Q9H9Z2 16-187)
Description: was detected after incubation at room temperature using a TECAN Spark plate reader. Half maximal
inhibitory concentrations (IC50) were determined using GraphPad Prism 7.
Compound screening. High throughput screening was performed in low volume 384 well plates
(Corning 4514) with 30 µM compound, 40 nM LIN28A, and 2 nM preE-let-7f-1-FAM in FP assay
buffer. Compounds were transferred with an ECHO 520 liquid handler and protein and RNA were
added with a multidrop dispenser. Protein and RNA were added stepwise with a 30 min incubation
period in between. FP was detected after a final incubation of 15 min with an Envision plate reader
and fluorescence was measured with a Paradigm plate reader. A reaction without LIN28 served as a
negative control and one without compound was used as a positive control. The software Quattro
Workflow (Quattro Research GmbH) was used for the analysis of screening data.
Electrophoretic mobility shift assay. EMSA was used as a secondary assay to validate FP-assay hit
molecules. Purified LIN28A (residues 16–187) was incubated with compound and 5 U recombinant
ribonuclease inhibitor (Takara Bio) in EMSA reaction buffer (50 mM Tris (pH 7.5), 100 mM NaCl,
10 mM β-mercaptoethanol, 50 µM ZnCl2, 2 % DMSO, 0.01 % Tween 20, 12 % glycerol) for 2 hours
at room temperature. Subsequently, preE-let-7f-1-Cy3 (mus musculus) (GGGGUAGUGAUUUUAC
CCUGUUUAGGAGAU-Cy3, purchased from IDT) was added to a final concentration of 5 nM and
a reaction volume of 50 µL. The final concentration of LIN28A was 10 nM and compound
concentrations up to 75 µM were used. The reaction mixtures were incubated for a further 15 minutes
and 10 µL loading dye (40 % glycerol, 1.5x TAE) was added. 10 µL of each reaction was separated
in an 8 % polyacrylamide TAE gel at 4 °C and 220 V for 1 h using 0.25x TAE as running buffer. Cy3
fluorescence was detected with a ChemiDoc M P (Bio-Rad) and 2 minutes of exposure time.
Thermal shift assay. Thermal stability of the cold shock domain construct LIN28 A (residues 16–
126) with and without compound was monitored using a NanoTemper Prometheus NT.48 nano -

SMILES: O=C(C1=C(O)C(=O)N(c2ccc(O)c(C(=O)O)c2)C1c1ccc(-c2nccs2)cc1)c1ccc(Br)cc1 (centres unmarked) [C902/PH-31]
- IC50 ([1]; Table 1, quadruplicate, starting from a maximum concentration of 60 μM, eight concentrations, read-out: IC50, LIN28–let-7 inhibitory activity): 5 µM
- FP, Average (mP) ([1]; 0.041 μM compound): 109.25 mP
- FP, Average (mP) ([1]; 0.123 μM compound): 110.00 mP
- FP, Average (mP) ([1]; 0.368 μM compound): 113.50 mP
- FP, Average (mP) ([1]; 1.103 μM compound): 105.75 mP
- FP, Average (mP) ([1]; 3.125 μM compound): 75.05 mP
- FP, Average (mP) ([1]; 9.375 μM compound): 64.03 mP
- FP, Average (mP) ([1]; 29.688 μM compound): 43.05 mP
- FP, Average (mP) ([1]; 59.375 μM compound): 38.75 mP
- Kd [2]: 16.5 ± 2.8 µM
- level of mature let-7a [3]: increased levels
- level of mature let-7g [3]: increased levels
- inhibition of the LIN28–let-7 complex in EMSA ([4]; compound concentrations up to 75 µM): dose-dependent micromolar inhibition
- IC50 ([4]; relative fluorescence intensity of let-7f divided by that of LIN28–let-7f complex plus let-7f): 38 µM
